Reference: publication PMC9501280, “Anti-Inflammatory Activity of Soluble Epoxide Hydrolase Inhibitors Based on Selenoureas Bearing an Adamantane Moiety” (International Journal of Molecular Sciences, 2022)

Columns and labels:
[1] = system: E. coli MG1655 and B. subtilis 168 biosensor cells; assay: Whole-cell bacterial lux-biosensors, whole panel (statements in words); assay type: cell-based, Escherichia coli, Bacillus subtilis; settings: concentrations from 1 μM to 1 mM
Protocol: (§1) The study was carried out with use of the following whole-cell bacterial biosensors: Escherichia coli MG1655 pOxyR-lux, E. coli MG1655 pDps, E. coli MG1655 pSoxS-lux, E. coli MG1655 pColD-lux, E. coli MG1655 pAlkA-lux, E. coli MG1655 pXen7, Bacillus subtilis 168 pNK-AlkA, B. subtilis 168 pNK-MrgA and B. subtilis 168 pNK-DinC. These biosensors by the quantitation of bacterial stress promoters’ activity, make it possible to determine oxidative stress caused by hydrogen peroxide and the superoxide anion radical, SOS response, DNA alkylation, or general toxicity in Gram-positive and Gram-negative B. subtilis and E. coli cells. We used concentrations from 1 μM to 1 mM of the studied compounds added to the suspension of biosensor cells.
In this work, biosensor strains based on E. coli MG1655 cells and B. subtilis 168 cells were used.
(§2) The bioluminescence of cells was measured using a Synergy HT luminometer (Biotek, Winooski, VT, USA) at room temperature. Lux biosensors based on E. coli were grown to an early logarithmic phase (OD ≈ 0.1) to achieve a background luminescence approximately 100–1000 RLU at the beginning of the measurements. Lux biosensors based on B. subtilis were grown to a logarithmic phase with an optical density OD ≈ 0.6 (and background luminescence of about 10–500 RLU). […] The kinetics of change in luminescence was measured at room temperature.

E. coli MG1655 pXen7 = assay: Constitutive lux-biosensor, general toxicity; assay type: cell-based, Escherichia coli; settings: compound at 1 mM; decrease ascribed to shielding of bioluminescence
Protocol: Importantly, all the studied compounds are poorly soluble in water and can form a suspension at 1 mM; moreover, compound 4a at concentrations above 100 μM presents a substance of dark color and is capable of the partial shielding of bioluminescence.
(§3) pColD-lux―PcolD is induced by the SOS response; pDps―Pdps is activated in the presence of DNA-oxidizing agents; pSoxS-lux―PSoxS is induced in the presence of superoxide anion radicals; pOxyR-lux―PoxyR is induced in response to the appearance of hydrogen peroxide or organic peroxides; pAlkA-lux―PalkA is induced in response to DNA alkylation. pXen7 contains P. luminescens ZM1 lux genes controlled by its own promoter, which was used as a constitutive.
as §2, with “RLU). Biosensor cell cultures were divided into portions of 200 μL in a 96-well plate.” for “RLU).”

B. subtilis 168 pNK-AlkA = assay: Lux-biosensor, DNA alkylation (PalkA); assay type: cell-based, Bacillus subtilis; settings: compounds 1 μM to 1 mM; Standard = methyl methanesulfonate 1 mM
Protocol: as §1, with “biosensor cells. […]” for “biosensor cells.”
The bioluminescence of cells was measured using a Synergy HT luminometer (Biotek, Winooski, VT, USA) at room temperature. Lux biosensors based on E. coli were grown to an early logarithmic phase (OD ≈ 0.1) to achieve a background luminescence approximately 100–1000 RLU at the beginning of the measurements. Lux biosensors based on B. subtilis were grown to a logarithmic phase with an optical density OD ≈ 0.6 (and background luminescence of about 10–500 RLU). […] The kinetics of change in luminescence was measured at room temperature. […]

[2] = system: human neuroblastoma cells (SH-SY5Y); assay: MTT test on neuroblastoma cells; assay type: cell-based; settings: 72 h, read-out: EC50 ± SEM, SH-SY5Y
Protocol: For compounds with evident anti-inflammatory activity (4a and 5b) and one outgroup compound (4g), MTT tests with the human fibroblast cells (MRC-5) and human neuroblastoma cells (SH-SY5Y) were carried out. The studied compounds were added in concentrations of 1, 3, 6, 12, 25, 50, and 100 μM.
The MTT test to determine the effect of cell viability was performed on the SH-SY5Y neuroblastoma cell line in a 96-well plate.
Cells grown to 80% confluence were trypsinized and plated at a density of 5000 cells per well (100 µL total well volume) and incubated overnight in a CO2 incubator. The next day, a 50 mM stock of studied compounds in DMSO was diluted in DMEM and added in the amount of 50 μL per well to obtain final concentrations of 1–100 μM. […] After that, the supernatant was discarded, 100 μL of DMSO was added and, after the dissolution of the formazan crystals, the absorbance at 570 nm was measured on a Synergy HT plate reader (Biotek, Winooski, VT, USA). […]
All experiments with SH-SY5Y, E. coli and B. subtilis cell cultures were performed in 3 independent repetitions. The error in the luminescence measurements was calculated using the standard deviation equation based on 3 repeats, its values on the graphs are shown with error bars. EC50 concentrations were determined using Combenefit software.

E. coli MG1655 pDps = assay type: cell-based, Escherichia coli; settings: compounds 1 μM to 1 mM; Standard = hydrogen peroxide 100 μM
Protocol: as §1, §3
(§4) The bioluminescence of cells was measured using a Synergy HT luminometer (Biotek, Winooski, VT, USA) at room temperature. Lux biosensors based on E. coli were grown to an early logarithmic phase (OD ≈ 0.1) to achieve a background luminescence approximately 100–1000 RLU at the beginning of the measurements. Lux biosensors based on B. subtilis were grown to a logarithmic phase with an optical density OD ≈ 0.6 (and background luminescence of about 10–500 RLU). Biosensor cell cultures were divided into portions of 200 μL in a 96-well plate. Control toxicants and studied compounds were added to the cell suspension at 2 µL per well. Mitomycin C (at final concentration of 30 μM) for biosensors induced by the SOS response (PcolD and PdinC); methyl methanesulfonate (1 mM) for biosensors induced by DNA alkylation (PalkA); hydrogen peroxide (100 μM) for biosensors induced by presence of peroxides (PoxyR, Pdps and PmrgA) and methyl viologen (100 μM) for PsoxS activation by the presence of superoxide anion radicals. The kinetics of change in luminescence was measured at room temperature.
(§5) To unify the obtained results and eliminate the differences between the experiments due to different initial luminescence values, the luminescence value in each sample was normalized to the initial value according to Equation (1): (1) Lnorm(t, x)=L(t, x)/L(0, x) where Lnorm(t,x)—luminescence normalized to the initial value for the sample x, L(t,x) is the luminescence of sample x at time t and L(0,x) is the initial luminescence of sample x (immediately after addition of the studied compound or control toxicant). This normalization considers the optical density of the studied compound and the luminescence shielding caused by it, which appears immediately after the addition and facilitates the analysis of a slower effect associated with the general toxicity and activation of stress-inducible promoters for which the typical time of activation is in a range from several minutes to 3 h.
(§6) To determine the luminescence induction coefficient of biosensor cells, observed due to changes in the level of reporter genes transcription, the following equation was used:(2) Kind(t, x)=Lnorm(t, x)/Lnorm(t, contr) where Kind(t) is the calculated luminescence induction coefficient of biosensor cells in sample x at time point t, and Lnorm(t,contr) is the normalized luminescence in the control sample of the same biosensor cells without the addition of the studied compounds.

E. coli MG1655 pOxyR-lux = assay type: cell-based, Escherichia coli; settings: compounds 1 μM to 1 mM; Standard = hydrogen peroxide 100 μM
Protocol: as §1, §3, §4, §5, §6

E. coli MG1655 pAlkA-lux = assay type: cell-based, Escherichia coli; settings: compounds 1 μM to 1 mM; Standard = methyl methanesulfonate 1 mM
Protocol: as §1, §3, §4, §5, §6

E. coli MG1655 pColD-lux = assay type: cell-based, Escherichia coli; settings: compounds 1 μM to 1 mM; Standard = Mitomycin C 30 μM
Protocol: as §1, §3, §4, §5, §6

SMILES	activation of stress promoters (in words) [1]	luminescence decrease coefficient of the pXen7 biosensor (E. coli MG1655 pXen7)	max(Kind), B. subtilis 168 pNK-AlkA (B. subtilis 168 pNK-AlkA)	EC50 [2] [µM]	max(Kind), E. coli MG1655 pDps (E. coli MG1655 pDps)	max(Kind), E. coli MG1655 pOxyR-lux (E. coli MG1655 pOxyR-lux)	max(Kind), E. coli MG1655 pAlkA-lux (E. coli MG1655 pAlkA-lux)	max(Kind), E. coli MG1655 pColD-lux (E. coli MG1655 pColD-lux)
[Se]=C(Nc1ccccc1)NC12CC3CC(CC(C3)C1)C2 [4a, 1-(Adamantan-1-yl)-3-phenylselenourea]	causes only the activation of stress promoter PoxyR	0.29 ± 0.08	0.8 ± 0.4	16.5 ± 1.5	1.15 ± 0.25	2.62 ± 0.7	1.15 ± 0.33	1.5 ± 0.6
[Se]=C(Nc1ccccc1)NC1C2CC3CC(C2)CC1C3 (stereo not drawn) [4g, 1-(Adamantan-2-yl)-3-phenylselenourea]	does not cause an increase in the luminescence		0.7 ± 0.4	8.6 ± 0.9	1.2 ± 0.4	1.12 ± 0.16	1.05 ± 0.30	1.26 ± 0.31
